Consider 21 molecules from US11807650B2, “NMDA receptor modulators and uses thereof” (Novartis AG, priority 2016, dated 2023).

Assay [1] deals with T1, human GRIN1 (transcript variant NR1-3) and GRIN2D expressed in Xenopus oocytes (Homo sapiens, UniProt O15399).
T1 construct: GenScript (GRIN2D synthesis) SC115601; host or cells: Xenopus oocytes injected with cRNA (1 GluN1 : 2 GluN2)
The assay can be described thus: NR2D oocyte potentiation assay (two-electrode voltage clamp). The format is cell-based. The settings on record: 10 uM test compound; glutamate and glycine 10 μM each; holding potential −40 mV. A digest of the protocol: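 Xenopus oocytes were defolliculated with collagenase, then injected with 50 nL of cRNA encoding human GluN1 (NR1-3 variant) and GluN2D mixed 1:2 and kept 72 h at 16° C. Two-electrode voltage clamp at −40 mV recorded currents; after 10 μM glutamate plus 10 μM glycine reached plateau, test compound was added until a new plateau formed.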
In general terms: Two-electrode voltage clamp holds a large cell at a set potential and records current.

Assay [2] has as its target T2, human GRIN1 (variant NR1-3) and GRIN2D expressed in HEK293 cells (Homo sapiens, UniProt O15399).
T2 construct: GenScript (GRIN2D synthesis) SC115601; host or cells: HEK293
The assay can be described thus: GluN2D PAM CIQ fluorescence assay (Fluo-8 calcium, FDSS 6000). In kind it is cell-based. The settings on record: relative to CIQ (100 uM) = 100%, read-out: NR2D Percent CIQ Avg Max Measured Effect. How it is done:
GluN2D PAM CIO Flourescence AssayHEK293 cells were transfected to express human GRIN1 (variant NR1-3, Origene, SKU #: SC115601, Rockville, Md.) and GRIN2D (NCBI locus NM_000836, sequence optimized and synthesized by GenScript) and grown as an adherent monolayer at 37° C., 5% CO2 in DMEM/Ham's F12+10% FBS (Hyclone SH3007.03T in the presence of 2.5 mM ARL-15896 (AdooQ Bioscience, Irvine Calif.). To prepare the cells for an experiment, they were rinsed with Dulbecco's PBS (Ca^2+ and Mg^2+ free) and detached from the flask with TrypLE™ Express (Life Technologies, Carlsbad, Calif.) using the manufacturer's recommended methods. Cells collected from the flask were washed twice in Ca^2+/Mg^2+-free Hanks Balanced Salt Solution+20 mM HEPES (HBSS), and counted and assessed for viability with trypan blue. Washed cells were then dye-loaded by resuspending in Fluo-8/AM calcium sensitive dye plus Component B (AAT Bioquest, Sunnyvale, Calif.) diluted in HBSS. To allow cells to take up fluo-8 dye, they were incubated in the dark for 15 min at 37° C., followed by 30 min at 22-25° C. After dye-loading, cells were washed and resuspended in HBSS and plated in 384-well plates (Falcon 353962; Corning, Big Flats, N.Y.) at 20,000-30,000 cells/well in a final volume of 25 μl/well. The cell plates were centrifuged at 200×g, for 2 minutes at 21° C., to create a monolayer of cells at the bottom of the wells.
To initiate an assay, 10 μl of test compound or buffer was added to each well of the cell plate and pre-incubated for 10 minutes in the dark. After 10 minutes, the cell plate was placed in a FDSS 6000 plate reader (Hamamatsu Photonics, Middlesex, N.J.); baseline fluorescence readings were collected for 20 seconds. Next, 25 μl of agonist solution (3 μM glutamate, 3 μM glycine, and 1 mM Ca^2+ in HBSS) was added and the change in fluorescence was recorded for 3 minutes.
Results were calculated by comparing the effects of test compounds to that of the literature standard GluN2C/D PAM CIQ (100 uM). The increase in fluorescence in the presence of CIQ minus the increase induced by glutamate+glycine alone was set to 100%. Responses induced by compounds that were larger than gain the presence of the standard concentration of CIQ were greater than 100% and lesser responses were less than 100%.

T1 sequence (O15399 28-1336, other chains not shown): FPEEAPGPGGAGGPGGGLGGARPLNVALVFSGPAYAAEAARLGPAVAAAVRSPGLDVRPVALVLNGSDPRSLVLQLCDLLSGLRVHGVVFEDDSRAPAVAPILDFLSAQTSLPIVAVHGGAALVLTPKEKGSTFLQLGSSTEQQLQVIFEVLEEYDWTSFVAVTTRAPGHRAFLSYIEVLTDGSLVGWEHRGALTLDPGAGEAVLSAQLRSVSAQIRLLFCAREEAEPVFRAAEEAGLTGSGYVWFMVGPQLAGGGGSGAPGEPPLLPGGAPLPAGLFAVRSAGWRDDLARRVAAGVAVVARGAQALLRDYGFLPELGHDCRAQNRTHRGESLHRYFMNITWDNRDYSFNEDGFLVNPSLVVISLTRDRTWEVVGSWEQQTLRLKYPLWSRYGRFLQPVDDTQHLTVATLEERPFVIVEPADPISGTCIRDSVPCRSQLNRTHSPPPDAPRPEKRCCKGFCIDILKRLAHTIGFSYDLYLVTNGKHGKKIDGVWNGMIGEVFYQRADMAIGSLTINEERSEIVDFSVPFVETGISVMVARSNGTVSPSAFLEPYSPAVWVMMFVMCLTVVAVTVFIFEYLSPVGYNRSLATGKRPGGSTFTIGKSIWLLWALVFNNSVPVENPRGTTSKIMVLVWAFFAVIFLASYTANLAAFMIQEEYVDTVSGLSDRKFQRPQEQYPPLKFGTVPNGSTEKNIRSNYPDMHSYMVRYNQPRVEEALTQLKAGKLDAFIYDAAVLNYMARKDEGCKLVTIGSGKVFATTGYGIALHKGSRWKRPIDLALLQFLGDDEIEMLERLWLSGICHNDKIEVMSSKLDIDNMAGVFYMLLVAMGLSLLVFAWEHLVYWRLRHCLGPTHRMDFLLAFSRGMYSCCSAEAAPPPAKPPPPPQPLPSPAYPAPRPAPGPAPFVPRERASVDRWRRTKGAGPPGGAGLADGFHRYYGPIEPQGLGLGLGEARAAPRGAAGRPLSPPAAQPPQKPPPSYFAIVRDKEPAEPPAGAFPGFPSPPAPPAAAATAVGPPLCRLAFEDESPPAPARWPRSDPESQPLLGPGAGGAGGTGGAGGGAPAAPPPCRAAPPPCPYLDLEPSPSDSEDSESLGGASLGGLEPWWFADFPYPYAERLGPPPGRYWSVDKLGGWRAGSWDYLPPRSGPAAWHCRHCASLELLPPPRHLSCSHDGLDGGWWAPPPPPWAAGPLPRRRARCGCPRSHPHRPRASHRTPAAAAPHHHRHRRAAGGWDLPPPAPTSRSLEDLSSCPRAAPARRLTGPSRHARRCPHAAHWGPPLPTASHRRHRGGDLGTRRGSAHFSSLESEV
T2 sequence (O15399 28-1336, other chains not shown): as above

Consider `CC(C)(C)c1ccc(-c2nc3n(c(=O)c2C#N)CCCS3)cn1` [Example 174, 8-(6-tert-butyl-3-pyridinyl)-3,4-dihydro-6-oxo-2H,6H-pyrimido[2,1-b][1,3]thiazine-7-carbonitrile], for which, in assay [1], the activation at 10 µM was in the range of 500 to 1000%. In assay [2], the Emax lay within 100 to 200%.

For `CC1CSc2nc(-c3ccc(C(C)(C)C)nc3)c(C#N)c(=O)n2C1` (stereo not drawn) [Example 175, 8-(6-tert-butylpyridin-3-yl)-3-methyl-6-oxo-2H,3H,4H,6H-pyrimido[2,1-b][1,3]thiazine-7-carbonitrile], in assay [1], the activation at 10 µM was above 1000%. Also, the Emax in assay [2] was 100 to 200%.

As for `CC(C)(C)c1ncc(-c2nc3n(c(=O)c2C#N)CCCS3)cn1` [Example 176, 8-(2-tert-butylpyrimidin-5-yl)-6-oxo-2H,3H,4H,6H-pyrimido[2,1-b][1,3]thiazine-7-carbonitrile], the activation at 10 µM in assay [1] fell in the range of 500 to 1000%. In addition, in assay [2], the Emax was in the range of 100 to 200%.

As to `N#Cc1c(-c2cnc(C3CC3)nc2)nc2n(c1=O)CCCS2` [Example 178, 8-(2-cyclopropylpyrimidin-5-yl)-6-oxo-2H,3H,4H,6H-pyrimido[2,1-b][1,3]thiazine-7-carbonitrile], the activation at 10 µM in assay [1] lay within 10 to 100%. In addition, the Emax in assay [2] was in the range of 100 to 200%.

On to `CC(C)(C)c1cc(-c2nc3n(c(=O)c2C#N)CCCS3)ccn1` [Example 179, 8-(2-tert-butylpyridin-4-yl)-6-oxo-2H,3H,4H,6H-pyrimido[2,1-b][1,3]thiazine-7-carbonitrile], for which the activation at 10 µM in assay [1] lay within 10 to 100%. For the same molecule, in assay [2], the Emax is 100 to 200%.

In the case of `N#Cc1c(-c2ccc(C3CC3)nc2)nc2n(c1=O)CCCS2` [Example 181, 8-(6-cyclopropylpyridin-3-yl)-6-oxo-2H,3H,4H,6H-pyrimido[2,1-b][1,3]thiazine-7-carbonitrile], the activation at 10 µM in assay [1] fell in the range of 10 to 100%. Besides, in assay [2], the Emax is 100 to 200%.

Turning to `Cc1nc(C(C)(C)C)ccc1-c1nc2n(c(=O)c1C#N)CCCS2` [Example 182, 8-(6-tert-butyl-2-methylpyridin-3-yl)-6-oxo-2H,3H,4H,6H-pyrimido[2,1-b][1,3]thiazine-7-carbonitrile], the activation at 10 µM in assay [1] lay within 10 to 100%. For the same molecule, the Emax in assay [2] was 100 to 200%.

With `CC(C)(C)c1ccc(-c2nc3n(c(=O)c2C#N)CCCS3)nc1` [Example 183, 8-(5-tert-butylpyridin-2-yl)-6-oxo-2H,3H,4H,6H-pyrimido[2,1-b][1,3]thiazine-7-carbonitrile], in assay [1], the activation at 10 µM is 10 to 100%. Also, the Emax in assay [2] was in the range of 100 to 200%.

As to `CC(C)(C)c1ccc(-c2nc3n(c(=O)c2C#N)CCCS3)cc1` [Example 184, 8-(4-tert-butylphenyl)-3,4-dihydro-6-oxo-2H,6H-pyrimido[2,1-b][1,3]thiazine-7-carbonitrile], in assay [1], the activation at 10 µM was above 1000%. Besides, the Emax in assay [2] lay within 100 to 200%.

Consider `N#Cc1c(-c2ccc(C3CC3)cc2)nc2n(c1=O)CCCS2` [Example 189, 8-(4-cyclopropylphenyl)-6-oxo-2H,3H,4H,6H-pyrimido[2,1-b][1,3]thiazine-7-carbonitrile], for which the activation at 10 µM in assay [1] fell in the range of 10 to 100%. In addition, in assay [2], the Emax lay in the range of 10 to 50%.

As for `Cc1ccc(-c2ccc(-c3nc4n(c(=O)c3C#N)CCCS4)c(F)c2)cc1` [Example 197, 8-[2-fluoro-4-(4-methylphenyl)phenyl]-6-oxo-2H,3H,4H,6H-pyrimido[2,1-b][1,3]thiazine-7-carbonitrile], the activation at 10 µM in assay [1] was 10 to 100%. In assay [2], the Emax lay within 10 to 50%.

For the molecule `CC(C)c1ccc(-c2ccc(-c3nc4n(c(=O)c3C#N)CCCS4)c(F)c2)cc1` [Example 198, 8-{2-fluoro-4[4-(propan-2-yl)phenyl]phenyl}-6-oxo-2H,3H,4H,6H-pyrimido[2,1-b][1,3]thiazine-7-carbonitrile], the activation at 10 µM in assay [1] was in the range of 10 to 100%. Moreover, in assay [2], the Emax is 10 to 50%.

Take `CC1CSc2nc(-c3ccc(C(C)(C)C)cc3)c(C#N)c(=O)n2C1` (stereo not drawn) [Example 199, 8-(4-tert-butylphenyl)-3,4-dihydro-3-methyl-6-oxo-2H,6H-pyrimido[2,1-b][1,3]thiazine-7-carbonitrile]: the activation at 10 µM in assay [1] was above 1000%. Moreover, in assay [2], the Emax was in the range of 100 to 200%.

As for `CC(C)(C)c1ccc(-c2nc3n(c(=O)c2C#N)CC(O)CS3)cc1` (stereo not drawn) [Example 200, 8-(4-tert-butylphenyl)-3,4-dihydro-3-hydroxy-6-oxo-2H,6H-pyrimido[2,1-b][1,3]thiazine-7-carbonitrile], the activation at 10 µM in assay [1] was below 10%. Also, the Emax in assay [2] lay in the range of 50 to 100%.

For the molecule `CC1CCSc2nc(-c3ccc(C(C)(C)C)cc3)c(C#N)c(=O)n21` (stereo not drawn) [Example 201, 8-(4-tert-butylphenyl)-3,4-dihydro-4-methyl-6-oxo-2H,6H-pyrimido[2,1-b][1,3]thiazine-7-carbonitrile], in assay [1], the activation at 10 µM was in the range of 10 to 100%. Besides, in assay [2], the Emax lay in the range of 100 to 200%.

Take `CC(C)(C)c1ccc(-c2nc3n(c(=O)c2C#N)C(c2ccccc2)CCS3)cc1` (stereo not drawn) [Example 202, 8-(4-tert-butylphenyl)-3,4-dihydro-4-phenyl-6-oxo-2H,6H-pyrimido[2,1-b][1,3]thiazine-7-carbonitrile]: the “NR2D Oocyte % Potentiation @ 10 uM” value in assay [1] is recorded as “Inhibitor”. The Emax in assay [2] fell in the range of 10 to 50%.

`CC(C)(C)c1ccc(-c2nc3n(c(=O)c2C#N)CC2(COC2)CS3)cc1` [Example 204, 8′-(4-tert-butylphenyl)-6′-oxo-4′,6′-dihydro-2′H-spiro[oxetane-3,3′-pyrimido[2,1-b][1,3]thiazine]-7′-carbonitrile]: the activation at 10 µM in assay [1] was 10 to 100%. In assay [2], the Emax was in the range of 10 to 50%.

As for `CC(C)(C)c1ccc(-c2nc3n(c(=O)c2C#N)CCS3)cc1` [Example 205, 7-(4-tert-butylphenyl)-5-oxo-2H,3H,5H-[1,3]thiazolo[3,2-a]pyrimidine-6-carbonitrile], the activation at 10 µM in assay [1] fell in the range of 100 to 500%. In addition, in assay [2], the Emax was in the range of 100 to 200%.

For `CC(C)c1ccc(-c2nc3n(c(=O)c2C#N)CCS3)cc1` [Example 206, 5-oxo-7-[4-(propan-2-yl)phenyl]-2H,3H,5H-[1,3]thiazolo[3,2-a]pyrimidine-6-carbonitrile], the activation at 10 µM in assay [1] fell in the range of 10 to 100%. The Emax in assay [2] fell in the range of 50 to 100%.

In the case of `COc1ccc(-c2nc3n(c(=O)c2C#N)CCS3)c(OC)c1` [Example 208, 7-(2,4-dimethoxyphenyl)-5-oxo-2H,3H,5H-[1,3]thiazolo[3,2-a]pyrimidine-6-carbonitrile], the “NR2D Oocyte % Potentiation @ 10 uM” value in assay [1] is “Inhibitor”. For the same molecule, in assay [2], the Emax lay within 50 to 100%.

As for `N#Cc1c(-c2ccc(Cl)cc2)nc2n(c1=O)CCS2` [Example 209, 7-(4-chlorophenyl)-5-oxo-2H,3H,5H-[1,3]thiazolo[3,2-a]pyrimidine-6-carbonitrile], the “NR2D Oocyte % Potentiation @ 10 uM” value in assay [1] is reported as “Inhibitor”. In assay [2], the Emax was 10 to 50%.
